Laboratory results reported in PubChem BioAssay AID256 (DTP/NCI, 2004).
Where “and” joins values, the source holds several entries; their conditions need not be identical. Equal entries are not always repeated. Inconclusive results and toxic doses are left out. The calls were made as follows: active = survival T/C of 150% or more; inactive = T/C below 125% in these data.

System: CD2F1 mice, L1210 leukemia ip, survival T/C
Experiment: NCI In Vivo Anticancer Drug Screen. Data for tumor model L1210 Leukemia (intraperitoneal) in CD2F1 (CDF1) mice
Details: higher = longer survival
Procedure, shortened: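 Ratio T/C, where T is the treated-group value and C the vehicle-dosed control value, from mice implanted with a transplantable tumor.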

[1] = endpoint: mean survival time, dose: 100.0 mg/kg/injection, schedule: Q01DX009 (ip), vehicle: other
[2] = endpoint: mean survival time, dose: 200.0 mg/kg/injection, schedule: Q01DX009 (ip), vehicle: other
[3] = endpoint: mean survival time, dose: 25.0 mg/kg/injection, schedule: Q01DX009 (ip), vehicle: saline with Tween-80
[4] = endpoint: mean survival time, dose: 50.0 mg/kg/injection, schedule: Q01DX009 (ip), vehicle: saline with Tween-80
[5] = endpoint: mean survival time, dose: 200.0 mg/kg/injection, schedule: Q01DX009 (ip), vehicle: saline with Tween-80
[6] = endpoint: mean survival time, dose: 400.0 mg/kg/injection, schedule: Q01DX009 (ip), vehicle: saline with Tween-80
[7] = endpoint: mean survival time, dose: 100.0 mg/kg/injection, schedule: Q01DX009 (ip), vehicle: saline with Tween-80
[8] = endpoint: mean survival time, dose: 75.0 mg/kg/injection, schedule: Q01DX001 (ip), vehicle: saline
[9] = endpoint: mean survival time, dose: 150.0 mg/kg/injection, schedule: Q01DX001 (ip), vehicle: saline
[10] = endpoint: mean survival time, dose: 300.0 mg/kg/injection, schedule: Q01DX001 (ip), vehicle: saline
[11] = endpoint: mean survival time, dose: 100.0 mg/kg/injection, schedule: Q01DX009 (ip), vehicle: saline
[12] = endpoint: mean survival time, dose: 100.0 mg/kg/injection, schedule: Q04DX003 (ip), vehicle: saline
[13] = endpoint: mean survival time, dose: 200.0 mg/kg/injection, schedule: Q01DX009 (ip), vehicle: saline
[14] = endpoint: mean survival time, dose: 200.0 mg/kg/injection, schedule: Q04DX003 (ip), vehicle: saline
[15] = endpoint: mean survival time, dose: 400.0 mg/kg/injection, schedule: Q01DX009 (ip), vehicle: saline
[16] = endpoint: mean survival time, dose: 400.0 mg/kg/injection, schedule: Q04DX003 (ip), vehicle: saline
[17] = endpoint: mean survival time, dose: 100.0 mg/kg/injection, schedule: Q04DX003 (ip), vehicle: saline with Tween-80
[18] = endpoint: mean survival time, dose: 200.0 mg/kg/injection, schedule: Q04DX003 (ip), vehicle: saline with Tween-80
[19] = endpoint: mean survival time, dose: 400.0 mg/kg/injection, schedule: Q04DX003 (ip), vehicle: saline with Tween-80
[20] = endpoint: mean survival time, dose: 100.0 mg/kg/injection, schedule: Q01DX001 (ip), vehicle: saline
[21] = endpoint: mean survival time, dose: 200.0 mg/kg/injection, schedule: Q01DX001 (ip), vehicle: saline
[22] = endpoint: mean survival time, dose: 400.0 mg/kg/injection, schedule: Q01DX001 (ip), vehicle: saline
[23] = endpoint: mean survival time, dose: 400.0 mg/kg/injection, schedule: Q01DX009 (ip), vehicle: other

Measured: T/C

O=P(c1ccccc1)(c1ccccc1)c1ccccc1 (tested in a mixture with another compound)
inactive: endpoint: mean survival time, dose: 12.5 mg/kg/injection, schedule: Q01DX009 (ip), vehicle: other 100 % of control | endpoint: mean survival time, dose: 25.0 mg/kg/injection, schedule: Q01DX009 (ip), vehicle: other 100 % of control | endpoint: mean survival time, dose: 50.0 mg/kg/injection, schedule: Q01DX009 (ip), vehicle: other 101 % of control | [1] 96 % of control | [2] 103 % of control

C[CH2][Pb]([Cl])([CH2]C)[CH2]C
inactive: endpoint: mean survival time, dose: 1.56 mg/kg/injection, schedule: Q01DX009 (ip), vehicle: other 103 % of control | endpoint: mean survival time, dose: 3.12 mg/kg/injection, schedule: Q01DX009 (ip), vehicle: other 100 % of control | endpoint: mean survival time, dose: 6.25 mg/kg/injection, schedule: Q01DX009 (ip), vehicle: other 90 % of control

O=C(Nc1nncs1)c1ccncc1
inactive: endpoint: mean survival time, dose: 12.5 mg/kg/injection, schedule: Q01DX009 (ip), vehicle: saline with Tween-80 95 % of control and 112 % of control | [3] 115 % of control and 92 % of control | [4] 103 % of control | [5] 123 % of control and 94 % of control | [6] 110 % of control

Cc1c(C(=O)O)cc([N+](=O)[O-])cc1[N+](=O)[O-]
inactive: [7] 102 % of control | [5] 100 % of control | [6] 96 % of control

CCCCCCCCCc1ccc(OCCOCCOCCOCCOCCOCCOCCCS(=O)(=O)[O-])cc1.CCCCCCCCCc1ccc(OCCOCCOCCOCCOCCOCCOCCCS(=O)(=O)[O-])cc1.NC1CCCCC1N.[Pt+4]
inactive: endpoint: median survival time, dose: 3.12 mg/kg/injection, schedule: Q04DX003 (ip), vehicle: saline with Tween-80 98 % of control | endpoint: median survival time, dose: 6.25 mg/kg/injection, schedule: Q04DX003 (ip), vehicle: saline with Tween-80 98 % of control | endpoint: median survival time, dose: 12.5 mg/kg/injection, schedule: Q04DX003 (ip), vehicle: saline with Tween-80 98 % of control | endpoint: median survival time, dose: 25.0 mg/kg/injection, schedule: Q04DX003 (ip), vehicle: saline with Tween-80 95 % of control | endpoint: median survival time, dose: 50.0 mg/kg/injection, schedule: Q04DX003 (ip), vehicle: saline with Tween-80 97 % of control | endpoint: median survival time, dose: 100.0 mg/kg/injection, schedule: Q04DX003 (ip), vehicle: saline with Tween-80 102 % of control | endpoint: median survival time, dose: 200.0 mg/kg/injection, schedule: Q04DX003 (ip), vehicle: saline with Tween-80 103 % of control

O=C(OCCCCI)c1ccccc1
inactive: [8] 97 % of control | [9] 102 % of control | [10] 97 % of control

Nc1ccnc(SCCCOc2ccccc2)n1
inactive: endpoint: mean survival time, dose: 100.0 mg/kg/injection, schedule: Q04DX002 (ip), vehicle: saline with Tween-80 104 % of control | endpoint: mean survival time, dose: 200.0 mg/kg/injection, schedule: Q04DX002 (ip), vehicle: saline with Tween-80 101 % of control | endpoint: mean survival time, dose: 400.0 mg/kg/injection, schedule: Q04DX002 (ip), vehicle: saline with Tween-80 97 % of control

CC1CN(CCC#N)CC(C)O1 (stereo unspecified)
inactive: [11] 105 % of control | [12] 95 % of control | [13] 104 % of control | [14] 104 % of control | [15] 104 % of control | [16] 104 % of control

CCCCN(CCCC)CC(O)c1cc(-c2c(Cl)cccc2Cl)nc2c(Cl)cc(Cl)cc12 (stereo unspecified)
inactive: [17] 86 % of control | [18] 93 % of control | [19] 96 % of control

COc1ccc(/C(C#N)=C2\OC(=O)c3ccccc32)cc1OC
inactive: endpoint: mean survival time, dose: 50.0 mg/kg/injection, schedule: Q01DX009 (ip), vehicle: saline 93 % of control | [11] 94 % of control | [13] 94 % of control | [15] 94 % of control

Cn1ncc2c(NCc3ccccc3)ncnc21
inactive: endpoint: mean survival time, dose: 18.0 mg/kg/injection, schedule: Q01DX009 (ip), vehicle: saline with Tween-80 114 % of control | endpoint: mean survival time, dose: 37.5 mg/kg/injection, schedule: Q01DX009 (ip), vehicle: saline with Tween-80 115 % of control

CC1(C)SSC(C)(C)SS1
inactive: [17] 106 % of control | [18] 97 % of control | [19] 103 % of control

Cn1ncc(C(=O)O)c1[N+](=O)[O-]
inactive: [20] 102 % of control | [21] 103 % of control | [22] 94 % of control

CC(N)CC(C)N (stereo unspecified)
inactive: endpoint: mean survival time, dose: 100.0 mg/kg/injection, schedule: Q04DX002 (ip), vehicle: saline 105 % of control | endpoint: mean survival time, dose: 200.0 mg/kg/injection, schedule: Q04DX002 (ip), vehicle: saline 109 % of control

COc1ccc(O)cc1C
inactive: [1] 96 % of control | [2] 102 % of control | [23] 98 % of control

OC(CN1CCCCC1)c1ccncc1 (stereo unspecified)
inactive: [8] 95 % of control | [9] 95 % of control | [10] 95 % of control

CC(=O)n1c(COS(C)(=O)=O)nc2ccccc21
inactive: endpoint: mean survival time, dose: 25.0 mg/kg/injection, schedule: Q01DX001 (ip), vehicle: carboxymethylcellulose (CMC) 105 % of control | endpoint: mean survival time, dose: 50.0 mg/kg/injection, schedule: Q01DX001 (ip), vehicle: carboxymethylcellulose (CMC) 103 % of control

O=C(CC(=O)C(F)(F)C(F)(F)C(F)(F)F)C(F)(F)F.O=C(CC(=O)C(F)(F)C(F)(F)C(F)(F)F)C(F)(F)F.[Cu]
inactive: endpoint: mean survival time, dose: 3.13 mg/kg/injection, schedule: Q04DX002 (ip), vehicle: saline with Tween-80 90 % of control | endpoint: mean survival time, dose: 6.25 mg/kg/injection, schedule: Q04DX002 (ip), vehicle: saline with Tween-80 87 % of control | endpoint: mean survival time, dose: 12.5 mg/kg/injection, schedule: Q04DX002 (ip), vehicle: saline with Tween-80 102 % of control | endpoint: mean survival time, dose: 25.0 mg/kg/injection, schedule: Q04DX002 (ip), vehicle: saline with Tween-80 98 % of control | endpoint: median survival time, dose: 25.0 mg/kg/injection, schedule: Q04DX002 (ip), vehicle: saline with Tween-80 111 % of control

NCCCCCC(=O)O
inactive: endpoint: mean survival time, dose: 25.0 mg/kg/injection, schedule: Q01DX001 (ip), vehicle: saline 98 % of control | endpoint: mean survival time, dose: 50.0 mg/kg/injection, schedule: Q01DX001 (ip), vehicle: saline 98 % of control | [20] 93 % of control | [11] 94 % of control | [12] 89 % of control | [13] 96 % of control | [14] 98 % of control | [15] 97 % of control | [16] 102 % of control

O=[N+]([O-])c1ccc2nc(Cl)sc2c1
inactive: [3] 102 % of control | [4] 103 % of control | [7] 100 % of control | [17] 86 % of control

CC1CC(O)C(N)C(O)C1 (stereo unspecified)
inactive: [20] 103 % of control | [21] 98 % of control | [22] 98 % of control

CC1(CCOCc2ccccc2)NC(=O)NC1=O (stereo unspecified)
inactive: [7] 95 % of control | [17] 97 % of control | [5] 95 % of control | [18] 98 % of control | [6] 98 % of control | [19] 98 % of control

COc1ccc(Br)cc1C1OC(=O)c2c(OC)c(OC)cc(N)c21 (stereo unspecified)
inactive: [17] 98 % of control | [18] 92 % of control | [19] 88 % of control

CCCCCCCCCCCCCCCCCCOCC(COP(=O)([O-])OCC[N+](C)(C)C)OC (stereo unspecified)
inactive: endpoint: median survival time, dose: 6.25 mg/kg/injection, schedule: Q01DX009 (ip), vehicle: suspension in saline 98 % of control | endpoint: median survival time, dose: 12.5 mg/kg/injection, schedule: Q01DX009 (ip), vehicle: suspension in saline 93 % of control | endpoint: median survival time, dose: 25.0 mg/kg/injection, schedule: Q01DX009 (ip), vehicle: suspension in saline 104 % of control | endpoint: median survival time, dose: 50.0 mg/kg/injection, schedule: Q01DX009 (ip), vehicle: suspension in saline 88 % of control

c1ccc(-c2nncnn2)cc1
inactive: [17] 92 % of control

Cc1c2ccccc2c(CN(C)CC(=O)NCC(=O)NCC(=O)O)c2ccccc12
inactive: endpoint: mean survival time, dose: 100.0 mg/kg/injection, schedule: Q01DX001 (ip), vehicle: saline with Tween-80 103 % of control | endpoint: mean survival time, dose: 200.0 mg/kg/injection, schedule: Q01DX001 (ip), vehicle: saline with Tween-80 92 % of control | endpoint: mean survival time, dose: 400.0 mg/kg/injection, schedule: Q01DX001 (ip), vehicle: saline with Tween-80 92 % of control

Brc1ccc([Si](c2ccccc2)(c2ccccc2)c2ccc(-c3ccccc3)cc2)cc1
inactive: [1] 102 % of control | [2] 96 % of control | [23] 96 % of control
